Measured values as given in patent US20220047507A1, “MELFLUFEN DOSAGE REGIMENS FOR CANCER” (ONCOPEPTIDES AB, priority 2015, published 2022).
Values joined by “and” are separate entries in the source; they are usually repeats but may differ in a detail not shown here. Equal values may be shown once.

Assays:
Format in all cases: in vivo, human
[1] = system: relapsed-refractory multiple myeloma (RRMM) patients; assay: Efficacy in patients with RRMM, Example 2b, time point (bi)
Protocol: Example 2: An open label single arm extension on the dose of 40 mg over 30 minutes of Example 1. Intravenous melflufen was administered over 30 minutes on Day 1 of a 21-day cycle or 28-day cycle (in combination with 40 mg dexamethasone (oral or intravenous) treatment on Days 1, 8 and 15) for at least 2 cycles, and up to the stated number of cycles. The cycle length was extended during the Example 2 Clinical Trial from 21 to 28 days per a protocol amendment to allow for a better recovery of neutrophils and thrombocytes before a new cycle is initiated.
Example 2a results are from a data cut-off of time point (a). Example 2b results are from a data cut-off of time point (bi) for the efficacy data, which was approximately 12 months after time point (a); and from a data cut-off of time point (bii) for the safety data, which was approximately 10 months after time point (a).
By the data cut-off point (bi), […] (the 40 mg dosage excludes the mass of the salt component) administered over 30 minutes every 3 weeks (21 days) in combination with weekly dexamethasone (day 1, 8 and 15) or every 4 weeks (28 days) in combination with weekly dexamethasone (day 1, 8, 15 and 22).
[…] 10 patients were not evaluable for efficacy evaluation due to rapid early progression (8), or early termination due to adverse events (2).

[2] = system: relapsed-refractory multiple myeloma (RRMM) patients; assay: Efficacy in patients with RRMM, Example 2a; settings: Evaluable ≥ 1 cycle, n 35
[3] = system: patients with relapsed and/or relapsed-refractory multiple myeloma; assay: Safety of various dosages of melflufen, TEAEs (Example 1)
Protocol: Example 1: 4 dose levels (15, 25, 40 and 55 mg) of intravenous melflufen hydrochloride (excluding the mass of the salt component) in 290 to 370 ml glucose solution administered over 30 minutes on Day 1 of a 21-day cycle (in combination with dexamethasone treatment on Days 1, 8 and 15), for at least 1 cycle and up to 12 cycles, were evaluated.
Treatment emergent adverse events (TEAEs) of any grade were recorded in 29 patients that took part in Example 1 (4 patients at 15 mg dosage of melflufen over 30 minutes; 7 patients at 25 mg dosage of melflufen over 30 minutes; 12 patients at 40 mg dosage of melflufen over 30 minutes; and 6 patients at 55 mg dosage of melflufen over 30 minutes).

[4] = Evaluable ≥ 2 cycles, n 30, listed as Melflufen
[5] = Pomalidomide refractory, Example 2b, efficacy evaluable N = 29
[6] = Pomalidomide refractory, Example 2b, treated patients N = 39
[7] = Triple refractory (2 PI/ImiD + 1 ImiD/PI), Example 2b, treated patients N = 39
[8] = refractory status Alkylator, Example 2b, treated patients N = 39
[9] = refractory status Cyclophosphamide, Example 2b, efficacy evaluable N = 29
[10] = refractory status Cyclophosphamide, Example 2b, treated patients N = 39
[11] = refractory status High dose melphalan, Example 2b, efficacy evaluable N = 29
[12] = refractory status High dose melphalan, Example 2b, treated patients N = 39
[13] = refractory status IMiD, Example 2b, treated patients N = 39
[14] = refractory status Low dose melphalan, Example 2b, efficacy evaluable N = 29
[15] = refractory status Low dose melphalan, Example 2b, treated patients N = 39
[16] = refractory status None, Example 2b, efficacy evaluable N = 29
[17] = refractory status None, Example 2b, treated patients N = 39
[18] = refractory status PI + IMiD + Alkylator, Example 2b, efficacy evaluable N = 29
[19] = refractory status PI + IMiD + Alkylator, Example 2b, treated patients N = 39
[20] = refractory status PI + IMiD, Example 2b, treated patients N = 39
[21] = refractory status PI, Example 2b, treated patients N = 39
[22] = 55 mg melflufen hydrochloride, 6 patients
[23] = Example 1, all dose levels, 29 patients

## CCOC(=O)[C@H](Cc1ccc(F)cc1)NC(=O)[C@@H](N)Cc1ccc(N(CCCl)CCCl)cc1.Cl [melflufen, L-Melphalanyl-4-fluoro-L-phenylalanine ethyl ester]
[1]; Antibody refractory, Example 2b, efficacy evaluable N = 29
  CRR (≥MR): (50)+ %
[1]; Antibody refractory, Example 2b, treated patients N = 39
  CRR (≥MR): (33) %
[1]; Evaluable ≥ 1 cycle, n 40
  Clinical Benefit Rate (CBR): 50%
  Minimal Response (MR), patients: 8
  Overall Response Rate (ORR): 30%
  Positive Response (PR), patients: 9
  Progressive Disease (PD), patients: 9
  Stable Disease (SD), patients: 11
  Very Good Positive Response (PR), patients: 3
[1]; Evaluable ≥ 2 cycles, n 30
  Clinical Benefit Rate (CBR): 56% and 63%
  Overall Response Rate (ORR): 41% and 40%
  Positive Response (PR), patients: 9
  Progressive Disease (PD), patients: 1
  Stable Disease (SD), patients: 10
[1]; Evaluable ≥ 2 cycles, n 30, 40 mg over 30 min + dexamethasone
  Very Good Positive Response (PR), patients: 2
[1]; Evaluable ≥ 2 cycles, n 30, 40 mg over 30 min + dexamethasone, listed as Melflufen
  Very Good Positive Response (PR), patients: 3
[1]; [4]
  Clinical Benefit Rate (CBR): 63%
  Minimal Response (MR), patients: 7
  Overall Response Rate (ORR): 40%
[1]; Example 2b, 11 events in 12 responding patients
  median duration of response (DOR): 7.7 months
[1]; Example 2b, ITT-population (n=40)
  median progression free survival (PFS): 4.3 months
[1]; Example 2b, PP-population (efficacy evaluable, n=30)
  median progression free survival (PFS): 7.9 months
[1]; Example 2b, efficacy evaluable population
  increase in PFS compared to pomalidomide+dexamethasone and carfilzomib: around 4 months
[1]; [5]
  CRR (≥MR): (55) %
  ORR (≥PR): (36) %
[1]; [6]
  CRR (≥MR): (44) %
  ORR (≥PR): (25) %
[1]; Triple refractory (2 PI/ImiD + 1 ImiD/PI), Example 2b, efficacy evaluable N = 29
  CRR (≥MR): (70) %
[1]; [7]
  CRR (≥MR): (44) %
  ORR (≥PR): (25) %
[1]; of 30 evaluable
  best response of minimal response (MR) or better, n patients: 15 and 19
  partial response (PR) or better, n patients: 12
[1]; of the 8 patients refractory to an alkylator as their last line of treatment
  best response of PR or better, n patients: 5
[1]; refractory status Alkylator, Example 2b, efficacy evaluable N = 29
  CRR (≥MR): (73) %
[1]; [8]
  CRR (≥MR): (55) %
  ORR (≥PR): (36) %
[1]; [9]
  CRR (≥MR): (80) %
  ORR (≥PR): (60) %
[1]; [10]
  CRR (≥MR): (53) %
  ORR (≥PR): (40) %
[1]; [11]
  CRR (≥MR): (100) %
  ORR (≥PR): (67) %
[1]; [12]
  CRR (≥MR): (100) %
  ORR (≥PR): (33) %
[1]; refractory status IMiD, Example 2b, efficacy evaluable N = 29
  CRR (≥MR): (63) %
[1]; [13]
  CRR (≥MR): (47) %
  ORR (≥PR): (28) %
[1]; [14]
  CRR (≥MR): (60) %
  ORR (≥PR): (40) %
[1]; [15]
  CRR (≥MR): (67) %
  ORR (≥PR): (33) %
[1]; [16]
  CRR (≥MR): (100) %
  ORR (≥PR): (100) %
[1]; [17]
  CRR (≥MR): (100) %
  ORR (≥PR): (100) %
[1]; [18]
  CRR (≥MR): (44) %
  ORR (≥PR): (33) %
[1]; [19]
  CRR (≥MR): (40) %
  ORR (≥PR): (20) %
[1]; refractory status PI + IMiD, Example 2b, efficacy evaluable N = 29
  CRR (≥MR): (59) %
[1]; [20]
  CRR (≥MR): (46) %
  ORR (≥PR): (25) %
[1]; refractory status PI, Example 2b, efficacy evaluable N = 29
  CRR (≥MR): (63) %
[1]; [21]
  CRR (≥MR): (50) %
  ORR (≥PR): (25) %
[2]
  Positive Response (PR), patients: 9
  Progressive Disease (PD), patients: 8
[3]; 15 mg over 30 min (n = 4)
  Any treatment-related Grade 3 and 4 TEAE, n patients: 2
  Any treatment-related Grade 3 and 4 TEAE, total number of events: (4)
  Grade 3 and 4 febrile neutropenia, n patients: 1
  Grade 3 and 4 febrile neutropenia, total number of events: (1)
  Grade 3 and 4 neutropenia, n patients: 0
  Grade 3 and 4 neutropenia, total number of events: (0)
  Grade 3 and 4 thrombocytopenia, n patients: 1
  Grade 3 and 4 thrombocytopenia, total number of events: (1)
[3]; 25 mg over 30 min (n = 7)
  Any treatment-related Grade 3 and 4 TEAE, n patients: 5
  Any treatment-related Grade 3 and 4 TEAE, total number of events: (13)
  Grade 3 and 4 febrile neutropenia, n patients: 0
  Grade 3 and 4 febrile neutropenia, total number of events: (0)
  Grade 3 and 4 neutropenia, n patients: 2
  Grade 3 and 4 neutropenia, total number of events: (6)
  Grade 3 and 4 thrombocytopenia, n patients: 2
  Grade 3 and 4 thrombocytopenia, total number of events: (3)
[3]; 40 mg over 30 min (n = 12)
  Any treatment-related Grade 3 and 4 TEAE, n patients: 7
  Any treatment-related Grade 3 and 4 TEAE, total number of events: (23)
  Grade 3 and 4 febrile neutropenia, n patients: 1
  Grade 3 and 4 febrile neutropenia, total number of events: (2)
  Grade 3 and 4 neutropenia, n patients: 4
  Grade 3 and 4 neutropenia, total number of events: (8)
  Grade 3 and 4 thrombocytopenia, n patients: 4
  Grade 3 and 4 thrombocytopenia, total number of events: (9)
[3]; [22]
  Anemia, treatment related ≥grade 3: (33) %
  Any treatment-related grade 3 and/or grade 4, ≥grade 3: (100) %
  Blood and lymphatic system disorders, treatment related ≥grade 3: (100) %
  Cutaneous rash, treatment related ≥grade 3: (17) %
  Fatigue, treatment related ≥grade 3: (17) %
  General disorders and administration site conditions, treatment related ≥grade 3: (17) %
  Infections and infestations, treatment related ≥grade 3: (50) %
  Neutropenia, treatment related ≥grade 3: (100) %
  Pancytopenia, treatment related ≥grade 3: (17) %
  Pneumonia, treatment related ≥grade 3: (33) %
  Sepsis, treatment related ≥grade 3: (17) %
  Skin and subcutaneous disorders, treatment related ≥grade 3: (17) %
  Thrombocytopenia, treatment related ≥grade 3: (83) %
  Urinary tract infection, treatment related ≥grade 3: (17) %
[3]; 55 mg over 30 min (n = 6)
  Any treatment-related Grade 3 and 4 TEAE, n patients: 6
  Any treatment-related Grade 3 and 4 TEAE, total number of events: (58)
  Grade 3 and 4 febrile neutropenia, n patients: 1
  Grade 3 and 4 febrile neutropenia, total number of events: (1)
  Grade 3 and 4 neutropenia, n patients: 5
  Grade 3 and 4 neutropenia, total number of events: (17)
  Grade 3 and 4 thrombocytopenia, n patients: 5
  Grade 3 and 4 thrombocytopenia, total number of events: (28)
[3]; Example 1, all dose levels
  related Grade 3 or 4 neutropenia at least once, patients: 38%
  related Grade 3 or 4 thrombocytopenia at least once, patients: 41%
[3]; Example 1, all dose levels 15-55 mg, 29 patients
  total number of TEAEs reported: 157
[3]; [23]
  Grade 3 or 4 TEAEs, regardless of relationship, patients: 76%
  anemia, all grades, regardless of relationship: 59%
  anemia, all grades, regardless of relationship, n patients: 17
  nausea, all grades, regardless of relationship: 38%
  nausea, all grades, regardless of relationship, n patients: 11
  neutropenia, all grades, regardless of relationship: 41%
  neutropenia, all grades, regardless of relationship, n patients: 12
  thrombocytopenia, all grades, regardless of relationship: 69%
  thrombocytopenia, all grades, regardless of relationship, n patients: 20
[3]; Example 1, all dose levels, of 29 patients
  Grade 3 or 4 TEAEs, regardless of relationship, n patients: 22
